Test results taken from patent US20030162834A1, “Natural physiologically active material effective on fish diseases and fish food containing the material” (priority 1998, published 2003).

What was measured:
Kudoa shiomitsui spores = assay: Trial 2: in vitro immersion in octanoic acid seawater; type: cell-based; conditions: 800 PPM octanoic acid added to seawater, 20 degrees centigrade
Procedure: (§1) 800 PPM of octanoic acid was added to seawater and dissolved therein maximally. In this seawater solution, Bivagina tai larvae sampled from the gill of red sea bream, Heteraxine heterocerca larvae sampled from the gill of young yellowtail, Benedenia seriolae adults sampled from the body surface of young yellowtail, Kudoa shiomitsui spores sampled from the heart of tiger puffer, and Pseudocaligus fugu adults sampled from the body surface of tiger puffer were immersed under condition of 20 degrees centigrade, followed by observation. As control, another group was managed using seawater alone. More than 30 individuals of parasites were transferred to each group.

Bivagina tai larvae = assay: as above; type: cell-based; conditions: 800 PPM octanoic acid added to seawater, 20 degrees centigrade
Procedure: as §1

[1] = tested on: Benedenia seriolae adults; assay: as above; type: cell-based; conditions: 800 PPM octanoic acid added to seawater, 20 degrees centigrade
Procedure: as §1

[2] = tested on: Heteraxine heterocerca larvae; assay: as above; type: cell-based; conditions: 800 PPM octanoic acid added to seawater, 20 degrees centigrade
Procedure: as §1

[3] = tested on: Pseudocaligus fugu adults; assay: as above; type: cell-based; conditions: 800 PPM octanoic acid added to seawater, 20 degrees centigrade
Procedure: as §1

Heterobothrium okamotoi [4] = assay: Trial 3: oral octanoic acid, Heterobothrium okamotoi challenge trial on tiger puffer; type: in vivo; conditions: 2.5 g octanoic acid per 1 kg pellets
Procedure: Fish tested: Tiger puffer weighing approximately 133.6 g in average.
(§2) Trial groups: Two groups, i.e., an octanoic-acid added group in which fish were fed diets added with octanoic acid, and a control group in which fish were fed diets not added with octanoic acid. The feeding rate was 1% of fish weight/day for each group.
Trial diets: The diets added with octanoic acid were prepared by spraying 2.5 g of octanoic acid to 1 kg of commercially available pellets for tiger puffer. The control group fish were fed the commercially available pellets for tiger puffer.
Challenge trial: Each 12 pieces of fish (normal fish) from among a shoal of fish, in which no diseases such as Heterobothrium okamotoi infection were found, were put in a 100-liter water tank, and were fed the respective trial diets. After 7 days, 6 pieces of fish (infected fish), which had been infected in advance with approximately 100 individuals of Heterobothrium okamotoi, were added to each trial group. Then, bleeding was continued for 73 days while feeding the trial diets. In this trial, the parasites Heterobothrium okamotoi in the infected fish were in the stage of adult. After 30 days from adding the infected fish, 4 pieces of normal fish were sampled from each group, and the number of parasites attaching to the gill was counted. During the trial period, the water temperature was in the range of 16.5-20.9 degrees centigrade and the water was exchanged at 20 cycles/day.
Evaluation was made by comparing mortality of the fish in respective groups during the trial period, and by counting the number of parasites attaching to the gill of the infected fish in each group for investigation of the remedy efficacy and the infection preventable efficacy.

[5] = tested on: Heterobothrium okamotoi larvae; assay: Immersion of Heterobothrium okamotoi larvae in seawater with dissolved octanoic acid; type: cell-based; conditions: seawater in which octanoic acid was dissolved
Procedure: Larvae of parasites Heterobothrium okamotoi were immersed in seawater in which octanoic acid was dissolved. […] Octanoic acid is an edible natural material contained in palm oil, butter and nuts, and has been used in a drug applied to dyspeptics, for example.

Cryptocaryon irritans = assay: Trial 8: octanoic acid versus its monoglyceride and triglyceride, oral, red sea bream; type: in vivo; conditions: diet amount equal to 17.5 mM octanoic acid residues (2.5 g acid, 3.8 g monoglyceride, 2.7 g triglyceride per kg)
Text: Fish tested: Red sea bream weighing approximately 15.8 g in average.
Trial groups: Four groups, i.e., an octanoic-acid added group in which fish were fed diets added with octanoic acid, a monoglyceride added group in which fish were fed diets added with monoglyceride of octanoic acid, a triglyceride added group in which fish were fed diets added with triglyceride of octanoic acid, and a control group in which fish were fed diets added with neither octanoic acid nor glycerides. The feeding rate was 3% of fish weight/day for each group.
Trial diets: The diets added with octanoic acid were prepared by spraying 2.5 g (17.5 mM with respect to the diet weight) of octanoic acid to 1 kg of commercially available pellets for red sea bream. […]. Specifically, the diets added with monoglyceride and triglyceride were prepared respectively by spraying 3.8 g of monoglyceride and 2.7 g of triglyceride to 1 kg of the commercially available pellets for red sea bream. The control group fish were fed the commercially available pellets for red sea bream.
Challenge trial: Each 10 pieces of fish from among a shoal of fish, in which no diseases such as Cryptocaryon irritans infection were found, were put in a 100-liter water tank, and were fed the respective trial diets. After 5 days, approximately 2000 individuals of theronts of Cryptocaryon irritans were put into each water tank to infect the fish while water flow was stopped for 1 hour. Then, bleeding was continued for 31 days while feeding the respective trial diets. During the trial period, the water temperature was 24+−1 degrees centigrade and the water was exchanged at 20 cycles/day.
Evaluation was made by sampling 5 pieces of fish from each group after 18 and 31 days from the start of the challenge, and comparing the number of the parasites attaching to the gill of each fish.

Heterobothrium okamotoi [6] = assay: Trial 6: vitamin C enhancement trial on tiger puffer; type: in vivo; conditions: 5 g octanoic acid per 1 kg pellets (with or without 200 mg vitamin C per kg), oral, 15 days after first challenge
Text: Fish tested: Tiger puffer weighing approximately 50.0 g in average.
as §2, with “Three” for “Two”, “acid, an octanoic-acid added/vitamin-C enhanced group in which fish were fed diets added with both octanoic acid and vitamin C,” for “acid,”, “2%” for “1%”
Trial diets: The diets added with octanoic acid were prepared by spraying 5 g of octanoic acid to 1 kg of commercially available pellets for tiger puffer. The diets added with both octanoic acid and vitamin C were prepared by spraying 200 mg of vitamin C, dissolved in water, to 1 kg of the above diets added with octanoic acid. The control group fish were fed the commercially available pellets for tiger puffer.
Challenge trial: Each 5 pieces of fish from among a shoal of fish, in which no diseases such as parasitic infections were found, were put in a 100-liter water tank, and were fed the respective trial diets. After 7 days, approximately 750 individuals of oncomiracidia of Heterobothrium okamotoi were put into each water tank to infect the fish while water flow was stopped for 1 hour. The infection procedure was repeated every other day 5 times in total under the same condition. […]

CCCCCCCC(=O)O [octanoic acid]
time until burst image of the spores was observed (Kudoa shiomitsui spores): approximately 1 hour
contraction of parasites (Bivagina tai larvae): became contracted apparently
time until contraction occurred (Bivagina tai larvae): approximately 10 minutes
contraction of parasites [1]: became contracted apparently
time until contraction occurred [1]: approximately 10 minutes
contraction of parasites [2]: became contracted apparently
time until contraction occurred [2]: approximately 10 minutes
contraction of parasites [3]: no contraction
time until reduction in swimming activity was found [3]: approximately 1 hour
number of parasites attaching to the normal fish after 30 days, versus control (Heterobothrium okamotoi [4]): apparently reduced
number of parasites (adults and larvae) attaching to infected fish survived at the end of the trial, versus control (Heterobothrium okamotoi [4]; 73 days): apparently reduced
numbers of parasites in normal fish survived at the end and fish died during the trial (Heterobothrium okamotoi [4]; 73 days): apparently reduced
adults attaching to each survived infected fish at the end of the trial (Heterobothrium okamotoi [4]; 73 days, approximately 100 at the start): approximately 27 individuals
survival rate of the infected fish at the end of the trial (Heterobothrium okamotoi [4]; 73 days, control 16.7%): 66.7%
survival rate of the normal fish (Heterobothrium okamotoi [4]; cohabitation with infected fish 73 days, control 0%): 75%
effect on larvae [5]: died due to the occurrence of structural damages (such as vacuolation)
number of parasites attaching to the gill after 18 and 31 days, versus control (Cryptocaryon irritans): apparently fewer
number of parasites attaching to the gill (Heterobothrium okamotoi [6]): apparently fewer
